Source: PubChem BioAssay AID179 (DTP/NCI, 2004)
Calls of active or inactive are those of the source.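 How the source made its calls: active means compounds giving half or more protection of infected cells from virus-caused growth loss, again on retest; inactive means the rest.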

System: CEM cells HIV-1 protection, formazan growth assay
Assay: NCI AIDS Antiviral Assay
Conditions: for IC50: measured here: growth of uninfected CEM cells
Procedure, shortened: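 Soluble formazan readout of cell growth; CEM cells ± HIV-1; 5 drug concs. ≥50% protection → retest; ≥50% again = moderately active; reproducible 100% = confirmed active.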

SMILES	outcome	EC50	IC50
O=C(O)c1ccccc1NC(=O)C1CCCCC1	inactive		
Brc1ccc(N2N=NC3CNCC32)cc1 (stereo unspecified)		> 26.9 µM	> 26.9 µM
N#CC1(C#N)[C@@H]2CCC=C(Sc3ccccc3)[C@@H]21		> 200 µM	9.12 µM
N#C/C(=C\c1c(Cl)cccc1Cl)c1nc(-c2ccc(Cl)cc2)cs1		> 200 µM	72.4 µM
Cc1cc(NS(=O)(=O)c2ccc(Nc3c4ccccc4nc4c(C(=O)Nc5ccccc5)cccc34)cc2)no1		> 200 µM	10.5 µM
CCOC(=O)c1cc2sc(NC(=O)c3ccco3)nc2o1		182 µM	> 200 µM
CC(=O)N1N=C(N)CC1=O		> 200 µM	> 200 µM
CC1(C)OC2OC3C4COC(SSC56OCC(O5)C5OC7OC(C)(C)OC7C5O6)(O4)OC3C2O1 (stereo unspecified)		> 200 µM	26.3 µM
CN(C)C(=S)SSC(C)(C)C		> 200 µM	8.32 µM
Cc1cc(-c2ccco2)oc(=O)c1NC(=O)c1ccccc1		> 200 µM	25.1 µM
CCOC(=O)c1c(-c2ccc(OC)cc2)c(C#N)c(=S)n(C2OC(COC(C)=O)C(OC(C)=O)C(OC(C)=O)C2OC(C)=O)c1-c1ccccc1 (stereo unspecified)		> 200 µM	25.7 µM
COC(=O)/C(=N\Nc1nc(=S)[nH]n1N)C(C#N)c1ccccc1 (stereo unspecified)		> 178 µM	> 178 µM
Nc1ncnc2c1ncn2C1OC(CCP(=O)(O)O)C(O)C1O (stereo unspecified)		> 100 µM	> 100 µM
O=c1c(-c2ccccc2)nc2ccccc2n1CC1CCCN2CCCC[C@H]12 (stereo partly specified)		> 200 µM	39.8 µM
NC1=NC(=O)[C@H](CSCc2ccccc2)N1C(=O)OCc1ccccc1		> 200 µM	> 200 µM
CC(=O)OCC(=O)OC[C@H](OCc1ccccc1)[C@@H]1[C@H](OC(C)=O)C(=O)N1Cc1ccccc1		> 200 µM	145 µM
Cc1nc2ccccc2c(C)[n+]1[O-]		> 200 µM	> 200 µM
O=C1C=CC(=O)c2c(O)ccc(O)c21		> 200 µM	3.89 µM
O=S1(=O)OC2(c3ccccc31)c1cc(Br)c(O)c(O)c1Oc1c2cc(Br)c(O)c1O		> 39.8 µM	36.3 µM
CS(=O)(=O)NNS(=O)(=O)c1cccc([N+](=O)[O-])c1		> 617 µM	> 617 µM
N#CC1(c2ccccc2)CCNCC1		> 1120 µM	562 µM
CC1(C)[C@@H]2CC[C@]13CC(=O)O[C@@H]3C2		> 724 µM	> 724 µM
CCOC(=O)c1c(N2CCOCC2)[nH]c(=O)c(C(c2c(O)c(C(=O)OCC)c(N3CCOCC3)[nH]c2=O)C(C)C)c1O		> 200 µM	> 200 µM

SMILES	outcome	EC50	IC50
c1ccc([S+]([CH2][Hg][CH2][S+](c2ccccc2)c2ccccc2)c2ccccc2)cc1		> 30.2 µM	10 µM
Cc1nc2ccccc2c(=O)n1CC(=O)O	inactive		
O=c1cc2ccccc2nn1Cc1ccccc1		> 21.9 µM	> 21.9 µM
COC(=O)C(=O)C(C(=O)C(=O)Nc1ccccc1C(N)=O)c1nc2ccc(Cl)cc2[nH]c1=O (stereo unspecified)		> 75.9 µM	> 75.9 µM
CCCCCCCCCCCCCCCCOCC(COC1OC(CO)C(O)C(O)C1O)OCCCCCCCCCCCCCCCC (stereo unspecified)		> 19.5 µM	
O=C1C(=O)N(c2ccc(Cl)cc2)C(=O)C(=O)C1c1nc2ccccc2s1		> 18.6 µM	> 18.6 µM
O=c1ccn([C@@H]2C=C(CO)[C@@H](O)[C@H]2O)c(=O)[nH]1		> 200 µM	> 200 µM
Cc1c2c(n3c(nc4ccccc43)c1C#N)N(c1ccc(F)cc1)CC2		> 200 µM	> 200 µM
COC1Cc2c(C)c(OC(C)=O)c3cccnc3c2O1 (stereo unspecified)		> 200 µM	22.4 µM
O=C(O)CCCc1ccc2c(c1)CC1(C2)Cc2cc3c(cc2C1)CCCC3		> 200 µM	36.3 µM
COc1ccc(C2OCC3C(c4ccc(OC)c(OC)c4)OCC23)cc1OC (stereo unspecified)		> 200 µM	97.7 µM
CS1(=O)=NC(=NC#N)c2ccccc21 (stereo unspecified)	inactive		
CCSC1(SCC)CCN(C=NC(C)(C)C)C1		> 912 µM	> 912 µM
CCOC(=O)NC(OCc1ccccc1)(C(=O)OC)C(F)(F)F (stereo unspecified)		> 200 µM	> 200 µM
C=CCOC(=O)Cn1cc(C)c(=O)[nH]c1=O		> 200 µM	> 200 µM
COc1nc(NC2OCC(O)C(O)C2O)cc(=O)n1C (stereo unspecified)	inactive		
CCOC(=O)c1nc2cc(C(F)(F)F)ccc2nc1Oc1ccc(F)cc1		> 200 µM	186 µM
OCCSCC/C(=N\N=C(/CCSCCO)c1ccccc1)c1ccccc1		> 87.1 µM	34.7 µM
O=c1[nH]c2ccccc2c(O)c1/C=N/C(=S)NCc1ccccc1		> 200 µM	> 200 µM
NCCN(CCN)/[N+]([O-])=N/O		> 200 µM	> 200 µM
O=C(O)CNS(=O)(=O)c1ccc(NC(=O)c2ccc(Cl)cc2)cc1	inactive		
CC1(C)Cc2c(C#N)c(N)c3c(c2CO1)C(=O)OC3=O		> 19.1 µM	> 19.1 µM
O=NNc1cnccn1		> 1700 µM	> 1700 µM

SMILES	outcome	EC50	IC50
Cc1cs/c(=N\C(P(=O)(O)O)P(=O)(O)O)n1C		> 100 µM	> 100 µM
OC1(C23CC4CC(CC(C4)C2)C3)CSCC1(O)C12CC3CC(CC(C3)C1)C2 (stereo unspecified)		> 7.08 µM	> 7.08 µM
Cn1c(-c2cccs2)cc(-c2cccs2)c1-c1ccco1		> 200 µM	30.2 µM
COC1/C=C/OC2(C)Oc3c(C)c(O)c4c(O)c(c(C=NN5CCCCCCCC5)c(O)c4c3C2=O)NC(=O)/C(C)=C/C=C/C(C)C(O)C(C)C(O)C(C)C(OC(C)=O)C1C (stereo unspecified)	inactive		
O=[N+]([O-])c1ccc(C2NC3=C(CCCC3)N2)cc1		> 40.7 µM	> 40.7 µM
Cc1ccc(/C=N\NC(=O)c2ccncc2)s1		> 200 µM	117 µM
C#CCOCn1cnc2c(Sc3c([N+](=O)[O-])ncn3C)ncnc21		> 105 µM	38 µM
N#CC(C(=O)CCC(=O)Nc1ccc(Cl)c(Cl)c1)c1ccccc1 (stereo unspecified)		> 692 µM	> 692 µM
O=C(Nc1ccccc1C(=O)Nc1nccs1)c1ccccc1		> 200 µM	32.4 µM
c1ccc(P(=Nc2ccccc2N=P(c2ccccc2)(c2ccccc2)c2ccccc2)(c2ccccc2)c2ccccc2)cc1	inactive		
CCOC(=O)C(=Cc1ccc(C(=O)OC)cc1)C(=O)OCC		> 85.1 µM	12.6 µM
CC(C)(C)C1CCC2(CC1)CCN(CCCN1CCOCC1)CC2		> 55 µM	12.3 µM
O=C1NC(=O)C2C(=O)NC(=O)C1C2c1c(Cl)cccc1Cl (stereo unspecified)		> 759 µM	501 µM
c1ccc(C(NC2=NCCO2)C2CC2)cc1 (stereo unspecified)		> 200 µM	45.7 µM
O=c1[nH]c(O)c(/C=N\C(=S)Nc2cc(Cl)ccc2Cl)c(=O)[nH]1		> 200 µM	162 µM
CC(C)/C(Cl)=N/OC(NC(=O)Nc1ccc(Cl)c(Cl)c1)(C(F)(F)F)C(F)(F)F	inactive		
CCOC(=O)/C=C/c1ccc(Br)cc1		> 28.2 µM	> 28.2 µM
CCCCNC(=S)SSSSC(=S)NCCCC		> 200 µM	11.2 µM
CC(=O)OCC1OC(n2c(-c3ccc(Cl)cc3)cc(-c3ccccc3)c(C#N)c2=S)C(OC(C)=O)C(OC(C)=O)C1OC(C)=O (stereo unspecified)		> 200 µM	145 µM
O=C1c2ccc3c4ccccc4n(-c4ccccc4)c3c2C(=O)N1c1ccc(Cl)cc1	inactive		
CN(C)C=Nc1nc(=O)n(C2CCC(CO)O2)cc1F (stereo unspecified)		0.0676 µM	95.5 µM
Cc1ccc(NC(=O)NC(=O)c2ccc([N+](=O)[O-])cc2[N+](=O)[O-])cc1Oc1ncc(Cl)cn1	inactive		
CN(C)c1ccc(C(=S)c2ccc(N(C)C)cc2)cc1		> 200 µM	0.741 µM

SMILES	outcome	EC50	IC50
NS(=O)(=O)c1nnc(NC(=O)C23CC4CC(CC(C4)C2)C3)s1		> 200 µM	81.3 µM
CN(C)CC1CCCC1=O (stereo unspecified)	inactive	> 200 µM	28.2 µM
Cc1ccc(Nc2c(C#N)[n+]([O-])c3cc(Cl)ccc3[n+]2[O-])cc1		> 20 µM	19.1 µM
Nc1ccccc1C(=O)C(Br)C(Br)c1ccc2c(c1)OCO2 (stereo unspecified)		> 43.7 µM	23.4 µM
CSc1c(C(N)=O)c2c(N)ncnc2n1C1OC(CO)C(O)C1O (stereo unspecified)		> 2 µM	1.02 µM
O/C(=C\c1nc2ccccc2nc1NC12CC3CC(CC(C3)C1)C2)c1ccc(Br)cc1		> 200 µM	> 200 µM
c1cc(CSP234N5CCN2CCN3CCN4CC5)cc(CSP234N5CCN2CCN3CCN4CC5)c1		> 100 µM	25.1 µM
COC12OCCN(C)C1=CC(=O)C1=NNC(C)C12 (stereo unspecified)	inactive		
C#CCC(O)c1ccccc1C(O)CC#C (stereo unspecified)	inactive		
O=C1OCC2C(=O)OCC12 (stereo unspecified)		> 200 µM	> 200 µM
CCCCCCCCN(CCCCCCCC)/N=C/c1c2c(O)c3c(O)c(C)c4c(c3c1O)C(=O)C(C)(O/C=C/C(OC)C(C)C(OC(C)=O)C(C)C(O)C(C)C(O)C(C)/C=C/C=C(C)C(=O)N2)O4 (stereo unspecified)	inactive		
Cc1[nH]n(C(=O)Cc2ccccc2)c(=O)c1/C=C1\C(=O)C=Cc2ccccc21		> 51.3 µM	> 51.3 µM
CCOC(=O)CCNC(=O)c1ccccc1SC(=O)CCCC[n+]1ccccc1		> 2 µM	1.51 µM
COc1ccc(/C=C/C(=O)c2ccc(OC(=O)/C=C/c3ccccc3)cc2)cc1		> 200 µM	9.12 µM
CC1(C)OCC(CO)(CO)CO1		> 1410 µM	> 1410 µM
O=C1OCCOCCOCCOC(=O)c2ccccc2SSc2ccccc21		> 200 µM	33.9 µM
CC(=O)c1cccc(NC(=O)C(=O)c2c(O)c3ccccc3oc2=O)c1		> 708 µM	380 µM
COc1ccc(NC(=O)CC(=O)N2N=C(N3CCCCC3)CC2c2ccccc2)cc1 (stereo unspecified)		> 200 µM	> 200 µM
CCCCCCCCCCCCCCCC(=O)NC(Cc1c[nH]c2ccccc12)C(=O)O (stereo unspecified)		> 200 µM	50.1 µM
CC1=CP(=O)(c2ccccc2)C=C(C)C1=C(Cl)Cl (stereo unspecified)	inactive		
CC(C)(C)c1cc(/C=C2\CCC/C(=C\c3cc(C(C)(C)C)c(O)c(C(C)(C)C)c3)C2=O)cc(C(C)(C)C)c1O		> 200 µM	> 200 µM
